In assay [1] the target is T1, EGFR (aa668-1210, Invitrogen) (Homo sapiens, UniProt P00533).
T1 construct: EGFR (aa668-1210, Invitrogen); purchased Invitrogen
As to the kind of experiment: Biochemical EGFR inhibition assay (TR-FRET), wild-type EGFR. The settings on record: ATP at Km, 15 min pre-incubation, 60 min reaction; read-out: WT (Km ATP) IC50. As for the experimental part: (§1) Compounds were tested for inhibition of kinase activity against EGFR (aa668-1210, Invitrogen), EGFR(L858R_T790M_C797S) (aa695-end, Invitrogen) and EGFR(Dell9_T790M_C797S) (aa 669-1210, in house) in assays based on time-resolved fluorescence-resonance energy transfer (TR-FRET) methodology. Recombinant EGFR, EGFR(L858R_T790M_C797S) or EGFR(Dell9_T790M_C797S) was pre-incubated with the compounds at room temperature for 15 minutes in an assay buffer containing 50 mM HEPES pH7.5, 10 mM MgCl2, 2 mM DTT, 1 mM EGTA, 0.1% BSA, 0.01% Tween-20. The reactions were initiated by the addition of ATP (at the concentration of ATP Km) and substrate Biotin-Poly GT. After reaction at room temperature for 60 minutes, stop/detection solution was added. The stop/detection solution contained Eu^3+ cryptate-conjugated mouse monoclonal antibody (PT66) anti-phosphotyrosine and XL665-conjugated streptavidin in buffer containing 50 mM HEPES pH7.0, 800 mM KF, 20 mM EDTA, and 0.1% BSA. Plates were sealed and incubated at room temperature for 1 hour, and the TR-FRET signals (ratio of fluorescence emission at 665 nm over emission at 620 nm with excitation at 337 nm wavelength) were recorded on a PHERAstar FS plate reader (BMG Labtech). The residual enzyme activity in presence of increasing concentrations of compounds was calculated based on the ratio of fluorescence at 665 nm to that at 620 nm. The IC50 for each compound was derived from fitting the data to the four-parameter logistic equation by Dotmatics or Graphpad Prism software.
(§2) These biochemical EGFR enzyme form compound dose-response assays quantify the kinase activity via phosphorylation of a tagged poly-GT substrate. The results of the assay are provided as IC50 values.

Assay [2] deals with T2, EGFR(L858R_T790M_C797S) (aa695-end, Invitrogen) (Homo sapiens, UniProt P00533, C797S/L858R/T790M).
T2 construct: purchased Invitrogen
T2 sequence (P00533 695-1210 T790M/C797S/L858R): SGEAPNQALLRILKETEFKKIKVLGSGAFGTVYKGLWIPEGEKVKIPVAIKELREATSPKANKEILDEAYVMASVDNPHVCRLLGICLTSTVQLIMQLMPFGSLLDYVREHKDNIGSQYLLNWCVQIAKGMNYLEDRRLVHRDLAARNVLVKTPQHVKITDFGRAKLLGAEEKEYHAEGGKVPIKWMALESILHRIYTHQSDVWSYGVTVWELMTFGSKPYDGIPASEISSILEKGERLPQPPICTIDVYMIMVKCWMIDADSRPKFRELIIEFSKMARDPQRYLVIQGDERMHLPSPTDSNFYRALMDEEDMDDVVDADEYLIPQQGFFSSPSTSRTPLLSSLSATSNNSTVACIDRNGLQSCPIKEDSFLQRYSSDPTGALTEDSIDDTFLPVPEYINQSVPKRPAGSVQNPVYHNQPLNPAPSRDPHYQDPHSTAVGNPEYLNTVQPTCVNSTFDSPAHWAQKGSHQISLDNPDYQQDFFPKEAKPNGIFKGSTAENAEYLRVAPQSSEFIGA
The assay can be described thus: Biochemical EGFR inhibition assay (TR-FRET), L858R/T790M/C797S mutant. The settings on record: ATP at Km, 15 min pre-incubation, 60 min reaction; read-out: LR_TM_CS (Km ATP) IC50. The method, then:
as §1, §2

Assay [3] concerns the target EGFR(Dell9_T790M_C797S) (aa 669-1210, in house) (Homo sapiens, UniProt P00533, T790M/C797S, form not given). As to the kind of experiment: Biochemical EGFR inhibition assay (TR-FRET), Del19/T790M/C797S mutant. The settings on record: ATP at Km, 15 min pre-incubation, 60 min reaction; read-out: Del_TM_CS (Km ATP) IC50. The method, then:
as §1, §2
For orientation: In TR-FRET formats the signal depends on donor and acceptor labels being close together.

Molecules are shown by their SMILES.

T1 sequence (P00533 668-1210): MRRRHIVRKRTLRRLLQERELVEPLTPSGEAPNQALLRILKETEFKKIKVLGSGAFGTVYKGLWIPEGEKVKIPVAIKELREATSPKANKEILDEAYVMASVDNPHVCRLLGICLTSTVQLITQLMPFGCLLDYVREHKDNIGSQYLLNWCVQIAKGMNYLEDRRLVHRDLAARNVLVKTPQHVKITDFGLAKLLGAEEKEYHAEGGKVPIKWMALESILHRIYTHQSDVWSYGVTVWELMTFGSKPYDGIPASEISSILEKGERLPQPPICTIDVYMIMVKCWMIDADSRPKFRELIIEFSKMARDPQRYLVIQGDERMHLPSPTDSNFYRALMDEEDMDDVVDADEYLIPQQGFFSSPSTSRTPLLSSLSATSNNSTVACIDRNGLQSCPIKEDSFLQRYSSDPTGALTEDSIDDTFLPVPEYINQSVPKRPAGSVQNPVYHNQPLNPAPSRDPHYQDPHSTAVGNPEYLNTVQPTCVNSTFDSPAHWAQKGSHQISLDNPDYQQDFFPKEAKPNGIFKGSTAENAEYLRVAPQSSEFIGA
EGFR(Dell9_T790M_C797S) (aa 669-1210, in house), sequence (P00533 with tags, fused parts or gaps DEL746-750/T790M/C797S, form open): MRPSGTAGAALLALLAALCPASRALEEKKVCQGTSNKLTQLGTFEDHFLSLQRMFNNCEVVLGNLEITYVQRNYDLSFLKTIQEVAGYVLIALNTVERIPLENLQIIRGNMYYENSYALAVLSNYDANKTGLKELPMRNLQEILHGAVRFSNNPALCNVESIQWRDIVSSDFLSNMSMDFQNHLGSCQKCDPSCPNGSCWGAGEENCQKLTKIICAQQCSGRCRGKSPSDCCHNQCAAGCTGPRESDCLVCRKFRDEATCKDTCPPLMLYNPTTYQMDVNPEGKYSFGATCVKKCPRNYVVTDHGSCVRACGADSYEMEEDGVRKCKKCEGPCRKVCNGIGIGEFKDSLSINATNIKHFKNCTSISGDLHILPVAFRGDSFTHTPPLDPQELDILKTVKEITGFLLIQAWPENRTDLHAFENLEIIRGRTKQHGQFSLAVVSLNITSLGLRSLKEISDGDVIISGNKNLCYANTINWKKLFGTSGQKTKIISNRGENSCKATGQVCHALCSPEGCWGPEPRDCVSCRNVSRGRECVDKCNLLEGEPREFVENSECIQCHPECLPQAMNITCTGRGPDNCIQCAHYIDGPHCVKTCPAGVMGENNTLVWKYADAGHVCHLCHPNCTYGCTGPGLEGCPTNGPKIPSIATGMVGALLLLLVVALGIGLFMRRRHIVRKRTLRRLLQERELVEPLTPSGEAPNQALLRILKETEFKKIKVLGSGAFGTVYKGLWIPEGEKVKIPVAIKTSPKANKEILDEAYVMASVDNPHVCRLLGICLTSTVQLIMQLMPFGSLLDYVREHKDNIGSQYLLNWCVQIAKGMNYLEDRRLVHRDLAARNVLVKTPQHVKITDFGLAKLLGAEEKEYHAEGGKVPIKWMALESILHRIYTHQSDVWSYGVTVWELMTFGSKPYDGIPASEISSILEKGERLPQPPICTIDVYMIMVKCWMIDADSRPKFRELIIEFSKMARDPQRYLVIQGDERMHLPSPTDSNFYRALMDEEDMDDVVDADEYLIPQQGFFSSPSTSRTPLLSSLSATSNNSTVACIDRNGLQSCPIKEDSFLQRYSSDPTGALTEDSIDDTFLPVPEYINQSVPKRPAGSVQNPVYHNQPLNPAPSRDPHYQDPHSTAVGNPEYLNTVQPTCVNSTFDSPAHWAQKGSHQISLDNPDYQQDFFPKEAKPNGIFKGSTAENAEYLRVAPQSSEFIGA

As for `CN1CCN(C2CCN(c3ccc(Nc4nc(Nc5cccc6c5N(S(C)(=O)=O)CC6)c5cc[nH]c5n4)cc3F)CC2)CC1` [Example 79, N^2-(3-fluoro-4-(4-(4-methylpiperazin-1-yl)piperidin-1-yl)phenyl)-N^4-(1-(methylsulfonyl)indolin-7-yl)-7H-pyrrolo[2,3-d]pyrimidine-2,4-diamine], the IC50 in assay [1] came out at 14 nM; in assay [2] it was 0.26 nM; in assay [3] it was 0.29 nM.

On to `CN1CCN(C2CCN(c3ccc(Nc4nc(Nc5cccc6c5N(S(C)(=O)=O)CC6)c5cc[nH]c5n4)cc3Cl)CC2)CC1` [Example 80, N^2-(3-chloro-4-(4-(4-methylpiperazin-1-yl)piperidin-1-yl)phenyl)-N^4-(1-(methylsulfonyl)indolin-7-yl)-7H-pyrrolo[2,3-d]pyrimidine-2,4-diamine], for which the IC50 in assay [1] amounted to 40.4 nM; in assay [2], 0.7 nM; in assay [3] it was 0.85 nM.

In the case of `COc1cc(Nc2nc(Nc3cccc4c3N(S(C)(=O)=O)CC4)c3cc[nH]c3n2)ccc1N1CCC(N2CCN(C)CC2)CC1` [Example 81, N^2-(3-methoxy-4-(4-(4-methylpiperazin-1-yl)piperidin-1-yl)phenyl)-N^4-(1-(methylsulfonyl)indolin-7-yl)-7H-pyrrolo[2,3-d]pyrimidine-2,4-diamine], the results for the half-maximal inhibitory concentration (IC50) in assay [1], in assay [2] and in assay [3] were 82.7 nM, 0.44 nM and 0.76 nM, respectively.

Consider `Cc1cc(Nc2nc(Nc3cccc4c3N(S(C)(=O)=O)CC4)c3cc[nH]c3n2)ccc1N1CCC(N2CCN(C)CC2)CC1` [Example 82, N^2-(3-methyl-4-(4-(4-methylpiperazin-1-yl)piperidin-1-yl)phenyl)-N^4-(1-(methylsulfonyl)indolin-7-yl)-7H-pyrrolo[2,3-d]pyrimidine-2,4-diamine], for which the values for the 50% inhibitory concentration (IC50) in assay [1], in assay [2] and in assay [3] were 39.7 nM, 0.7 nM and 0.85 nM, respectively.

As for `COc1cc(C2CCN(CCN(C)C)CC2)c(C)cc1Nc1nc(Nc2cccc3c2N(S(C)(=O)=O)CC3)c2cc[nH]c2n1` [Example 109, N^2-(4-(1-(2-(dimethylamino)ethyl)piperidin-4-yl)-2-methoxy-5-methylphenyl)-N^4-(1-(methylsulfonyl)indolin-7-yl)-7H-pyrrolo[2,3-d]pyrimidine-2,4-diamine], the half-inhibitory concentration (IC50) in assay [1] worked out at 433 nM; in assay [2], 3.1 nM; in assay [3], 10 nM.

Consider `COc1cc(N2C[C@@H]3C[C@H]2CN3C)ccc1Nc1nc(Nc2cccc3c2N(S(C)(=O)=O)CC3)c2cc[nH]c2n1` [Example 110, N^2-(2-methoxy-4-((1S,4S)-5-methyl-2,5-diazabicyclo[2.2.1]heptan-2-yl)phenyl)-N^4-(1-(methylsulfonyl)indolin-7-yl)-7H-pyrrolo[2,3-d]pyrimidine-2,4-diamine], for which the IC50 in assay [1] came to 572 nM; in assay [2] it was 5.1 nM; in assay [3], 10.7 nM.

As for `COc1cc(N2[C@@H]3CC[C@H]2CN(C)C3)ccc1Nc1nc(Nc2cccc3c2N(S(C)(=O)=O)CC3)c2cc[nH]c2n1` [Example 111, N^2-(2-methoxy-4-((1R,5S)-3-methyl-3,8-diazabicyclo[3.2.1]octan-8-yl)phenyl)-N^4-(1-(methylsulfonyl)indolin-7-yl)-7H-pyrrolo[2,3-d]pyrimidine-2,4-diamine], the IC50 in assay [1] came out at 146 nM; in assay [2], 2.8 nM; in assay [3], 11.1 nM.

With `COc1cc(N(C)CCN(C)C)ccc1Nc1nc(Nc2cccc3c2N(S(C)(=O)=O)CC3)c2cc[nH]c2n1` [Example 112, N^2-(4-((2-(dimethylamino)ethyl)(methyl)amino)-2-methoxyphenyl)-N^4-(1-(methylsulfonyl)indolin-7-yl)-7H-pyrrolo[2,3-d]pyrimidine-2,4-diamine], the IC50 came to 840 nM in assay [1], 2.9 nM in assay [2] and 14.6 nM in assay [3].

In the case of `COc1cc(-c2cnn(CCN(C)C)c2)ccc1Nc1nc(Nc2cccc3c2N(S(C)(=O)=O)CC3)c2cc[nH]c2n1` [Example 113, N^2-(4-(1-(2-(dimethylamino)ethyl)-1H-pyrazol-4-yl)-2-methoxyphenyl)-N^4-(1-(methylsulfonyl)indolin-7-yl)-7H-pyrrolo[2,3-d]pyrimidine-2,4-diamine], the IC50 amounted to 1470 nM in assay [1], 16 nM in assay [2] and 18.5 nM in assay [3].

With `COc1cc(-c2cnn(CCN3CCN(C)CC3)c2)ccc1Nc1nc(Nc2cccc3c2N(S(C)(=O)=O)CC3)c2cc[nH]c2n1` [Example 115, N^2-(2-methoxy-4-(1-(2-(4-methylpiperazin-1-yl)ethyl)-1H-pyrazol-4-yl)phenyl)-N^4-(1-(methylsulfonyl)indolin-7-yl)-7H-pyrrolo[2,3-d]pyrimidine-2,4-diamine], the half-maximal inhibitory concentration (IC50) in assay [1] worked out at 2490 nM; in assay [2] it was 20.7 nM; in assay [3] it was 42.8 nM.

On to `COc1cc(N2CCC(N3CCN(C)CC3)CC2)ccc1Nc1ncc(Br)c(Nc2cccc3c2N(S(C)(=O)=O)C(C)(C)C3)n1` [Example 134, 5-bromo-N4-(2,2-dimethyl-1-(methylsulfonyl)indolin-7-yl)-N2-(2-methoxy-4-(4-(4-methylpiperazin-1-yl)piperidin-1-yl)phenyl)pyrimidine-2,4-diamine], for which the 50% inhibitory concentration (IC50) in assay [1] came to 11.5 nM; in assay [2], 0.3 nM; in assay [3] it was 0.8 nM.

In the case of `COc1cc(N2CCC(N3CCN(C)CC3)CC2)ccc1Nc1ncc(Br)c(Nc2cccc3c2N(S(C)(=O)=O)C2(CC2)C3)n1` [Example 136, 5-bromo-N2-(2-methoxy-4-(4-(4-methylpiperazin-1-yl)piperidin-1-yl)phenyl)-N4-(1′-(methylsulfonyl)spiro[cyclopropane-1,2′-indolin]-7′-yl)pyrimidine-2,4-diamine], the results for the 50% inhibitory concentration (IC50) in assay [1], in assay [2] and in assay [3] were 1.4 nM, 0.3 nM and 0.9 nM, respectively.

Regarding `COc1cc(Nc2nc(Nc3cccc4c3N(S(C)(=O)=O)CC4)c3cc[nH]c3n2)cc(F)c1N1CCC(N2CCN(C)CC2)CC1` [Example 148, N2-(3-fluoro-5-methoxy-4-(4-(4-methylpiperazin-1-yl)piperidin-1-yl)phenyl)-N4-(1-(methylsulfonyl)indolin-7-yl)-7H-pyrrolo[2,3-d]pyrimidine-2,4-diamine], the figures for the IC50 in assay [1], in assay [2] and in assay [3] were 1390 nM, 9.9 nM and 6.5 nM, respectively.

As to `COc1cc(Nc2nc(Nc3cccc4c3N(S(C)(=O)=O)CC4)c3cc[nH]c3n2)c(F)cc1N1CCC(N2CCN(C)CC2)CC1` [Example 149, N2-(2-fluoro-5-methoxy-4-(4-(4-methylpiperazin-1-yl)piperidin-1-yl)phenyl)-N4-(1-(methylsulfonyl)indolin-7-yl)-7H-pyrrolo[2,3-d]pyrimidine-2,4-diamine], the concentration for half-maximal inhibition (IC50) in assay [1] came to 22.1 nM; in assay [2] it was 0.4 nM; in assay [3], 0.4 nM.

Regarding `CN1CCN(C2CCN(c3ccc(Nc4nc(Nc5cccc6c5N(S(C)(=O)=O)CC6)c5cc[nH]c5n4)nc3)CC2)CC1` [Example 154, N2-(5-(4-(4-methylpiperazin-1-yl)piperidin-1-yl)pyridin-2-yl)-N4-(1-(methylsulfonyl)indolin-7-yl)-7H-pyrrolo[2,3-d]pyrimidine-2,4-diamine], the IC50 amounted to 303 nM in assay [1], 2.7 nM in assay [2] and 2.2 nM in assay [3].

For the molecule `COc1cc(N2CCC(N3CCN(C)CC3)CC2)c(C)cc1Nc1ncc(Br)c(Nc2cccc3c2N(S(C)(=O)=O)CC32CC2)n1` [Example 181, 5-bromo-N2-(2-methoxy-5-methyl-4-(4-(4-methylpiperazin-1-yl)piperidin-1-yl)phenyl)-N4-(1′-(methylsulfonyl)spiro[cyclopropane-1,3′-indolin]-7′-yl)pyrimidine-2,4-diamine], the IC50 was 0.9 nM in assay [1], 0.3 nM in assay [2] and 0.6 nM in assay [3].

As to `CN1CCN(C2CCN(c3ccc(Nc4nc(Nc5cccc6c5N(S(C)(=O)=O)CC6)c5cc[nH]c5n4)c4c3OCO4)CC2)CC1` [Example 182, N2-(7-(4-(4-methylpiperazin-1-yl)piperidin-1-yl)benzo[d][1,3]dioxol-4-yl)-N4-(1-(methylsulfonyl)indolin-7-yl)-7H-pyrrolo[2,3-d]pyrimidine-2,4-diamine], the IC50 was found to be 230 nM in assay [1], 1.2 nM in assay [2] and 1.5 nM in assay [3].

For orientation: IC50 means the concentration needed to halve the response being measured.

These data come from US20260167619A2, “INDOLINE COMPOUNDS AND DERIVATIVES AS EGFR INHIBITORS” (BeOne Medicines I GmbH, priority 2020, published 2026).
